Experimental data reported in ChEMBL document CHEMBL1201862, “PubChem BioAssay data set” (2004).
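Interpolation was linear, between the two tested concentrations surrounding the appropriate level; five concentrations were tested over 48 hours in 96-well plates. GI50 is the concentration that inhibits growth by half.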 Active and inactive are the calls of the source. Rule as the data show it: active = GI50 up to about 1.1 µM and inactive = higher.

How the values were obtained:
Experiment in all cases: DTP human tumour cell line panel, 48 h
[1] = tested on: NCI-H226
[2] = tested on: OVCAR-4
[3] = tested on: TK-10
[4] = tested on: MDA-N
[5] = tested on: BT-549
[6] = tested on: PC-3
[7] = tested on: MDA-MB-435
[8] = tested on: SK-OV-3
[9] = tested on: LOX IMVI
[10] = tested on: RXF 393
[11] = tested on: M14
[12] = tested on: K562
[13] = tested on: OVCAR-3
[14] = tested on: NCI-H460
[15] = tested on: Hs-578T
[16] = tested on: CCRF-CEM
[17] = tested on: SF-268
[18] = tested on: OVCAR-5
[19] = tested on: SW-620
[20] = tested on: MCF7
[21] = tested on: SK-MEL-5
[22] = tested on: DU-145
[23] = tested on: SK-MEL-2
[24] = tested on: SF-295
[25] = tested on: CAKI-1
[26] = tested on: KM12
[27] = tested on: SNB-19
[28] = tested on: SNB-75
[29] = tested on: HT-29
[30] = tested on: U-251
[31] = tested on: NCI/ADR-RES
[32] = tested on: HCT-116
[33] = tested on: MOLT-4
[34] = tested on: HCT-15
[35] = tested on: T47D
[36] = tested on: UACC-62
[37] = tested on: A549
[38] = tested on: EKVX
[39] = tested on: HOP-62
[40] = tested on: COLO 205
[41] = tested on: ACHN
[42] = tested on: IGROV-1
[43] = tested on: NCI-H522
[44] = tested on: HOP-92
[45] = tested on: SN12C
[46] = tested on: OVCAR-8
[47] = tested on: NCI-H23
[48] = tested on: SK-MEL-28
[49] = tested on: HCC 2998
[50] = tested on: UACC-257
[51] = tested on: HL-60
[52] = tested on: RPMI-8226
[53] = tested on: 786-0
[54] = tested on: Malme-3M
[55] = tested on: UO-31
[56] = tested on: SF-539
[57] = tested on: SR
[58] = tested on: A498
[59] = tested on: MDA-MB-231

Measured: GI50

CCCNC(=O)Cn1c(C)cc2ccccc21
> 100 µM: [34]
inactive: [1] > 100 µM | [2] > 100 µM | [3] > 100 µM | [4] > 100 µM | [5] > 100 µM | [6] > 100 µM | [7] > 100 µM | [8] > 100 µM | [9] > 100 µM | [10] > 100 µM | [11] > 100 µM | [12] > 100 µM | [13] > 100 µM | [14] > 10 µM | [15] > 100 µM | [16] > 100 µM | [17] > 100 µM | [18] > 100 µM | [19] > 100 µM | [20] > 100 µM | [21] > 100 µM | [22] > 100 µM | [23] > 100 µM | [24] > 10 µM | [25] > 100 µM | [26] > 100 µM | [27] > 100 µM | [28] > 100 µM | [29] > 100 µM | [30] > 100 µM | [31] > 100 µM | [32] > 100 µM | [33] > 100 µM | [35] > 100 µM | [36] > 100 µM | [37] > 100 µM | [38] > 100 µM | [39] > 100 µM | [40] > 100 µM | [41] > 100 µM | [42] > 100 µM | [43] > 100 µM | [44] > 100 µM | [45] > 100 µM | [46] > 100 µM | [47] > 100 µM | [48] > 100 µM | [49] > 100 µM | [50] > 100 µM | [51] > 100 µM | [52] > 100 µM | [53] > 100 µM | [54] > 100 µM | [55] > 100 µM | [56] > 100 µM | [57] > 100 µM

COc1cccc(C2c3cc4c(cc3OC(NNS(=O)(=O)c3ccc(C)cc3)C2C)OCO4)c1OC (configuration not stated)
2.65 µM: [34]
inactive: [1] 2.56 µM | [3] 4.46 µM | [4] 3.37 µM | [58] 2.41 µM | [5] 2.2 µM | [6] 2.97 µM | [7] 3.57 µM | [8] 2.59 µM | [9] 2.08 µM | [10] 2.12 µM | [11] 3.59 µM | [12] 2.12 µM | [13] 1.75 µM | [14] 2.67 µM | [15] 1.83 µM | [16] 2.03 µM | [17] 4.3 µM | [59] 5.47 µM | [18] 4.82 µM | [19] 3.08 µM | [20] 2.99 µM | [21] 2.83 µM | [22] 2.29 µM | [23] 2.31 µM | [24] 2.9 µM | [25] 2.29 µM | [26] 3.3 µM | [27] 3.59 µM | [28] 2.52 µM | [29] 3.18 µM | [30] 2.62 µM | [32] 1.78 µM | [33] 2.74 µM | [35] 3.44 µM | [36] 3.75 µM | [37] 2.62 µM | [38] 3.18 µM | [39] 2.84 µM | [40] 1.83 µM | [41] 2.77 µM | [42] 2.52 µM | [43] 1.88 µM | [44] 2.15 µM | [45] 3.2 µM | [46] 27.4 µM | [47] 4.06 µM | [48] 6.98 µM | [49] 5.36 µM | [50] 2.7 µM | [51] 1.42 µM | [52] 2.28 µM | [53] 22.2 µM | [54] 3.61 µM | [55] 2.63 µM | [56] 2.97 µM | [57] 1.36 µM

CC(=O)C(=[N+]=[N-])C(=O)OCCOC(=O)C(=[N+]=[N-])C(C)=O
> 1 µM: [34]
active: [1] > 1 µM | [3] > 1 µM | [4] > 1 µM | [58] > 1 µM | [5] > 1 µM | [6] > 1 µM | [7] > 1 µM | [8] > 1 µM | [9] > 1 µM | [10] > 1 µM | [11] > 1 µM | [12] > 1 µM | [13] > 1 µM | [14] > 1 µM | [15] > 1 µM | [16] > 1 µM | [17] > 1 µM | [59] > 1 µM | [18] > 1 µM | [20] > 1 µM | [21] > 1 µM | [22] > 1 µM | [23] > 1 µM | [24] > 1 µM | [26] > 1 µM | [27] > 1 µM | [28] > 1 µM | [29] > 1 µM | [30] > 1 µM | [32] > 1 µM | [33] > 1 µM | [35] > 1 µM | [36] > 1 µM | [37] > 1 µM | [38] > 1 µM | [39] > 1 µM | [41] > 1 µM | [42] > 1 µM | [44] > 1 µM | [45] > 1 µM | [46] > 1 µM | [47] > 1 µM | [48] > 1 µM | [49] > 1 µM | [50] > 1 µM | [51] > 1 µM | [52] > 1 µM | [53] > 1 µM | [54] > 1 µM | [55] > 1 µM | [56] > 1 µM | [57] > 1 µM
